Measured values: patent US20190167694A1, “NEW THERAPEUTICS USES” (NOVARTIS AG, priority 2016, published 2019)

Experiments:
[1] = test system: TEC-family kinases (ITK, TEC, and TXK); experiment: Cellular IL-2 production assay in Jurkat cells (CD3/CD28 stimulation, ELISA); format: cell-based; settings: Homo sapiens, read-out: IC50, IL2-Production
Experimental: The cellular IL-2 Production assay was carried out using Jurkat cells.

[2] = test system: BTK (TMD-8); experiment: cells; settings: Homo sapiens, TMD8, 72 h, read-out: IC50, BTK (TMD-8) proliferation
Experimental: After 3 days, cell viability was measured using Cell Titer Glo.

[3] = test system: anti-KLH IgM and anti-KLH IgG antibodies; experiment: T-cell dependent antibody response (TDAR) assay in rats, KLH immunization; format: in vivo, rat; settings: for anti-KLH IgG, mean percent difference compared to vehicle controls / anti-KLH IgM, mean percent difference compared to vehicle controls: 30 mg/kg/day oral
Experimental: T-cells play critical roles in immune regulation. T-cell Tec family kinases are important players in T-cell function, which in turn can modulate immune function. COMPOUND A was tested in a T-cell dependent antibody response (TDAR) assay, a frequently used functional assessment of the immune system. […] On study days 11 and 25 for the main study animals and days 28 and 42 for the recovery group, animals received 300 μg of KLH (Keyhole Limpet Hemocyanin) antigen. Samples for serology assessment of anti-KLH IgM and anti-KLH IgG antibodies (study days 19, 21, 23, 25 and 36 prior to dosing from the main study animals; recovery days 42 and 53 prior to KLH injection from the recovery animals) were collected. Immunomodulatory responses in COMPOUND A-treated animals following KLH immunization were noted when values were compared to concurrent vehicle controls. […] The decreases were also observed in mean anti-KLH IgM values on study days 21, 23, 25 (primary response, time course) and day 36 (post boosting) for female rats. For anti-KLH IgG antibodies, decreases in mean concentration were apparent on study days 19, 21, 23 and 25 for both male and female rats. On study day 36, decreases in mean concentration were detected in female rats. Recovery following withdrawal of COMPOUND A treatment was noted. The COMPOUND A-related decrease of anti-KLH antibody production in both male and female rats was reversible. This included both primary response-anti-KLH IgM, and isotype switch measured by secondary anti-KLH IgG production as indicated by values that were similar to concurrent controls at the recovery sampling time points (recovery day 42 and 53).

[4] = test system: Human CD4 T cell; experiment: Human CD4 T cell proliferation assay (Cell Titer Glo); format: cell-based; settings: 96 h, anti-CD3/anti-CD28 beads, 4 days
Experimental: In the Human CD4 T cell assay, primary human CD4+ T cells isolated from a leukopak were cultured in the presence of anti-CD^3/anti-CD28 beads to stimulate T cell proliferation.

[5] = biological target: T1, TXK (Homo sapiens, UniProt P42681); experiment: Biochemical TXK assay (Caliper LabChip)
T1 sequence (P42681 1-527): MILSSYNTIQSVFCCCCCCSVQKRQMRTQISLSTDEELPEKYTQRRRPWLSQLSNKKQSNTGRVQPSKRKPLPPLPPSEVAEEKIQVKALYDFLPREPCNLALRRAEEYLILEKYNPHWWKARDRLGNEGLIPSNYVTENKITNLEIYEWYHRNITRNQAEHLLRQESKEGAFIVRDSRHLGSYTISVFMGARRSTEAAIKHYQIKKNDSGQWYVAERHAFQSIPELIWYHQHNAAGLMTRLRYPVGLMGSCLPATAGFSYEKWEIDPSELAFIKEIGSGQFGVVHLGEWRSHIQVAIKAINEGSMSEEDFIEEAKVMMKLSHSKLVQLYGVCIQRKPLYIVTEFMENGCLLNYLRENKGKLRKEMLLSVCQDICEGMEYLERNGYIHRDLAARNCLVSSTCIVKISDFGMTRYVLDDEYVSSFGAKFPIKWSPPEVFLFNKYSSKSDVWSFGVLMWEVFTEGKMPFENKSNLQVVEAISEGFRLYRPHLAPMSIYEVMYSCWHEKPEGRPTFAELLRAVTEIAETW
Experimental: The biochemical assays for ITK, TEC and TXK were carried out using Caliper Life Sciences' proprietary LabChip™ technology. This technology uses a microfluidic chip to measure the conversion of a fluorescent peptide substrate to a phosphorylated product. The product conversions were determined in the presence of various compound concentrations and IC50 values were calculated.

[6] = biological target: T2, TEC (Homo sapiens, UniProt P42680); experiment: Biochemical TEC assay (Caliper LabChip)
T2 sequence (P42680 1-631): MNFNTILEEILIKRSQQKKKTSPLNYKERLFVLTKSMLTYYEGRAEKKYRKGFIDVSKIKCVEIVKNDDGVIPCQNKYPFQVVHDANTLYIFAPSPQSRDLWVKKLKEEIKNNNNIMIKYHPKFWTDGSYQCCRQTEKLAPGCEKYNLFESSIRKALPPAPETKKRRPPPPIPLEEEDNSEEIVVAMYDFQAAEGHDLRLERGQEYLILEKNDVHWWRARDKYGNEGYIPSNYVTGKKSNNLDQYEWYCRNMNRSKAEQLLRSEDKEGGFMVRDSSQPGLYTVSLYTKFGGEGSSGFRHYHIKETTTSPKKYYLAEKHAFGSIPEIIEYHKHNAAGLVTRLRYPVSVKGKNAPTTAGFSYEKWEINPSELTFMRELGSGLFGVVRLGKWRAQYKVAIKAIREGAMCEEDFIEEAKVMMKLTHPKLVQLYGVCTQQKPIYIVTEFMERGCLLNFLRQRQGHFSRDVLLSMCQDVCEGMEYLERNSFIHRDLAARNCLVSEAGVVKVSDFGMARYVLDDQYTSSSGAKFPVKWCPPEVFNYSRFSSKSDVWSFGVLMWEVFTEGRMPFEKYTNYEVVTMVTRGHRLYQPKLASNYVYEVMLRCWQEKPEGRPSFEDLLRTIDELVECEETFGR

[7] = test system: Mouse B cell; experiment: cells; settings: 72 h, read-out: IC50, Mouse B cell proliferation
Experimental: Cells were incubated at 37° C. in the presence of various concentrations of compound. After 3 days, cell viability was measured using Cell Titer Glo.

[8] = female rats, study day 36 (post boosting)

C=CC(=O)N1CCC[C@@H](n2nc(-c3ccc(Oc4ccccc4)cc3)c3c(N)ncnc32)C1 [Ibrutinib, ibrutinib, reference compound]
IC50 [1]: 284 nM

Cc1cc(C(=O)Nc2nc3cccc(Cl)c3n2[C@@H]2CCCCN(C(=O)/C=C/CN(C)C)C2)ccn1 [COMPOUND A, (R,E)-N-(7-chloro-1-(1-(4-(dimethylamino)but-2-enoyl)azepan-3-yl)-1H-benzo[d]imidazol-2-yl)-2-methylisonicotinamide]
IC50 [2]: 224 nM | anti-KLH IgG, mean percent difference compared to vehicle controls ([3]; female rats, study day 19): −96% | anti-KLH IgM, mean percent difference compared to vehicle controls ([3]; female rats, study day 19): −88% | anti-KLH IgG, mean percent difference compared to vehicle controls ([3]; female rats, study day 21): −98% | anti-KLH IgM, mean percent difference compared to vehicle controls ([3]; female rats, study day 21): −75% | anti-KLH IgG, mean percent difference compared to vehicle controls ([3]; female rats, study day 23): −97% | anti-KLH IgM, mean percent difference compared to vehicle controls ([3]; female rats, study day 23): −71% | anti-KLH IgG, mean percent difference compared to vehicle controls ([3]; female rats, study day 25): −96% | anti-KLH IgM, mean percent difference compared to vehicle controls ([3]; female rats, study day 25): −63% | anti-KLH IgG, mean percent difference compared to vehicle controls [3, 8]: −69% | anti-KLH IgM, mean percent difference compared to vehicle controls [3, 8]: −67% | reversibility of decrease of anti-KLH antibody production after withdrawal of treatment ([3]; male and female rats, 30 mg/kg/day, recovery days 42 and 53): reversible | anti-KLH IgG, mean percent difference compared to vehicle controls ([3]; male rats, study day 19): −78% | anti-KLH IgM, mean percent difference compared to vehicle controls ([3]; male rats, study day 19): −67% | anti-KLH IgG, mean percent difference compared to vehicle controls ([3]; male rats, study day 21): −84% | anti-KLH IgG, mean percent difference compared to vehicle controls ([3]; male rats, study day 23): −80% | anti-KLH IgG, mean percent difference compared to vehicle controls ([3]; male rats, study day 25): −83% | IC50 [1]: 21 nM | IC50 [4]: 140 nM | IC50, TXK biochemical [5]: single digit nM potency | IC50, TEC biochemical [6]: single digit nM potency | IC50 [7]: 295 nM
